Source: patent US10730886B2, “Compound having effect of inhibiting platelet aggregation and salt thereof, and composition for preventing or treating thrombotic diseases, containing same” (SHIN POONG PHARMACEUTICAL CO., LTD., priority 2015, dated 2020)

Assays:
[1] = test system: carotid artery shear stress model; assay: Carotid artery shear stress model, amount of thrombus; format: in vivo, Sprague-Dawley rats; details: rat; for Amount of thrombus (mg, Mean ± SEM): 25 mg/kg oral, twice a day for 3 days after operation; for shear stress-induced thrombogenesis compared with the control group: oral
Experimental: Vehicle (0.5% methylcellulose), clopidogrel (8 mg/kg), aspirin (50 mg/kg) or a candidate substance was orally administered to male Sprague-Dawley rats (250 to 300 g). 2 hours after administration, the rats were anesthetized by ketamine/rompun (ketamine/xylazine) cocktail 0.1 ml/100 g. Except for the normal control group, the right cervical skin of the experimental animals was incised to expose the common carotid artery. A surgical tube with a length of 1 mm and an inside diameter of 0.58 mm was inserted into the exposed carotid artery and tied with a single thread. The exposed site and the operation site were treated with an anti-adhesion agent, and then sutured for the animals to recover. After the surgery, vehicle, clopidogrel, aspirin or a candidate substance was orally administered to the rats twice a day for 3 days. On the fourth day, 2 hours after the final administration, urethane (100 mg/300 μl/100 g) was administered intraperitoneally to the rats to induce anesthesia, and the operation site was opened to separate a total of 1 cm of the blood vessel, 5 mm above and 5 mm below the surgical tube. The separated blood vessel was perfused with 0.2 ml of 0.9% saline at 0.3 ml/min to remove the remaining blood, and then maintained in 1 ml of protein lysis buffer (NaOH 2 g, Na2CO3 0.1 g in 500 ml D.W). After collected, the blood vessel thrombus was double-boiled in boiling water together with the protein lysis buffer. 200 μl of the reaction solution (10 ml bicinchoninic acid solution+200 μl 4% aqueous solution of copper sulfate) was added to 10 μl of the heated thrombus, and the mixture was reacted at 37° C. for 30 minutes and quantified with an ELISA reader (562 nm).

[2] = test system: thrombin-induced platelet aggregation, Human PRP; assay: Thrombin-induced platelet aggregation in human PRP (lumi-aggregometer); format: cell-based; details: thrombin 0.6-0.8 U/ml;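 note: aggregation recorded for 5 min after thrombin addition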
Experimental: (§1) To investigate whether the candidate substance has inhibition selectivity for shear-stress-induced platelet aggregation, which is by a physical stimulus, […] experiment was conducted by activating platelets with physiological agonists—i.e., thrombin, collagen and ADP—to study the inhibitory effect of the candidate substance.
(§2) Human PRP (598.8 μl) was treated with 1.2 μl of the candidate substance per concentration (25, 100, 250 μM) and reacted at 37° C. for 3 minutes using a thermomixer. Then, PRP (495 μl) was put in the aggregometer cuvette and preincubated for 1 minute, followed by treatment with platelet aggregation-inducing reagent, thrombin (0.6-0.8 U/ml), collagen (2-5 μg/ml), or ADP (adenosine diphosphate, 15-20 μM) at the minimum concentration causing maximum aggregation. The degree of aggregation of the platelets was measured by a turbidity change using a lumi-aggregometer (Chrono-Log Co., USA). The turbidity of the PRP was considered as 0%, and the turbidity of the PPP was considered as 100%. During the measurement, the reaction mixture was continuously stirred at 1,000 rpm with a silicone-coated magnetic stir bar.

[3] = test system: collagen-induced platelet aggregation, Human PRP; assay: Collagen-induced platelet aggregation in human PRP (lumi-aggregometer); format: cell-based; details: collagen 2-5 μg/ml
Experimental: as §1, §2

[4] = test system: ADP-induced platelet aggregation, Human PRP; assay: ADP-induced platelet aggregation in human PRP (lumi-aggregometer); format: cell-based; details: ADP 15-20 μM
Experimental: as §1, §2

[5] = test system: human vascular endothelial cells (EA.hy926); assay: Cytotoxicity in EA.hy926 cell line (MTT assay); format: cell-based; details: 24 hours
Experimental: 5-1. Evaluation of Cytotoxicity of Candidate Substances Using EA.hy926 Cell Line
Experiments were conducted to determine the cytotoxicity of candidate substances in human vascular endothelial cells (EA.hy926). EA.hy926 was passaged in DMEM (Dulbecco's […]) supplemented with 10% fetal bovine serum (FBS) at 5% CO2/37° C. The cells were cultured in a 96 well plate at 1×10^4 cells/well for 48 hours, washed twice with DMEM and then cultured for 24 hours. Candidate substances were prepared at final concentrations of 25 and 100 μM, applied to the wells at 200 μl per well and cultured for 24 hours. MTT assay was used to measure the absorbance at 570 nm after colorization in violet.

[6] = test system: human liver cells (HepG2); assay: Cytotoxicity in human liver cells HepG2 (WST-1); format: cell-based; details: HepG2, 250 μM, 18 hours
Experimental: 5-3. Evaluation of Cytotoxicity of Candidate Substances Using Human Liver Cells
Experiments were conducted to evaluate cytotoxicity in human liver cells (HepG2). HepG2 cells, which are human liver carcinoma cell lines, were cultured in DMEM (Dulbecco's minimum essential medium) supplemented with 10% FBS (fetal bovine serum) and 1% Penicillin/Streptomycin at 37° C. and 5% CO2. The cells were cultured in a 48 well plate at 4×10^4 cells/well for 24 hours and then used in the experiments. The HepG2 cells were treated with the candidate substances (250 μM) for 18 hours, and then the medium was removed and WST-1 was added, followed by shading for 3 hours for reaction. After 3 hours, the supernatant was taken and absorbance was measured at 450 nm. Cell viability was calculated by comparing the absorbance measured after adding WST-1 to HepG2 cells not treated with the candidate substances. Acetaminophen (40 mM) was used as a control.

plasma [7] = assay: Plasma coagulation time, Activated Partial Thromboplastin Time (aPTT); format: biochemical; details: plasma treated 3 minutes
Experimental: (§3) In order to separate plasma, blood was collected with 3.2% sodium citrate as an anticoagulant. Whole blood was centrifuged at 2000 g for 20 minutes to obtain plasma. After treating the plasma with the test substances for 3 minutes, plasma coagulation time was measured. For plasma coagulation time, Activated Partial Thromboplastin Time (aPTT) and Prothrombin Time (PT) were measured using BBL® Fibrometer (Becton Dickinson, Cockeysville, Md.). For measurement of aPTT, the plasma was treated with aPTT reagents in fibrometer cup and reacted at 37° C. for 3 min. After the reaction, CaCl2 was added and blood coagulation time was measured immediately. For the measurement of PT, PT reagent was added to warmed plasma, and blood coagulation time was measured immediately. DTI, known to prolong plasma coagulation time, was used as a control.

plasma [8] = assay: Plasma coagulation time, Prothrombin Time (PT); format: biochemical; details: plasma treated 3 minutes
Experimental: as §3

| Structure (SMILES) | Amount of thrombus (mg, Mean ± SEM) [1] [mg] | shear stress-induced thrombogenesis compared with the control group [1] | Degree of platelet aggregation (%, Mean ± SEM) ([2]; 25 μM) [%] | Degree of platelet aggregation (%, Mean ± SEM) ([2]; 100 μM) [%] | Degree of platelet aggregation (%, Mean ± SEM) ([2]; 250 μM) [%] | Degree of platelet aggregation (%, Mean ± SEM) ([3]; 25 μM) [%] | Degree of platelet aggregation (%, Mean ± SEM) ([3]; 100 μM) [%] | Degree of platelet aggregation (%, Mean ± SEM) ([3]; 250 μM) [%] | Degree of platelet aggregation (%, Mean ± SEM) ([4]; compound 25 μM) [%] | Degree of platelet aggregation (%, Mean ± SEM) ([4]; compound 100 μM) [%] | Degree of platelet aggregation (%, Mean ± SEM) ([4]; compound 250 μM) [%] | Cell viability (%) ([5]; EA.hy926, 25 μM) | Cell viability (%) ([5]; EA.hy926, 100 μM) | Cell vaibility (%) [6] [%] | plasma coagulation time - aPTT, Time (plasma [7]; 25 μM) [s] | plasma coagulation time - aPTT, Time (plasma [7]; 100 μM) [s] | plasma coagulation time - aPTT, Time (plasma [7]; 250 μM) [s] | plasma coagulation time - PT, Time (plasma [8]; 25 μM) [s] | plasma coagulation time - PT, Time (plasma [8]; 100 μM) [s] | plasma coagulation time - PT, Time (plasma [8]; 250 μM) [s] |
| --- | --- | --- | --- | --- | --- | --- | --- | --- | --- | --- | --- | --- | --- | --- | --- | --- | --- | --- | --- | --- |
| O=C(c1ccc(O)c(O)c1)N1CCc2sccc2C1 [Example 1, (6,7-Dihydrothieno[3,2-c]pyridin-5(4H)-yl)(3,4-dihydroxyphenyl)methanone] | 0.065 ± 0.005 | significantly, remarkably inhibited | 88.0 ± 2.1 | 88.7 ± 6.1 | 78.7 ± 1.8 | 84.3 ± 3.5 | 80.7 ± 10.2 | 84.3 ± 3.8 | 77.5 ± 3.5 | 69.0 ± 6.0 | 78.0 ± 7.0 | 92.2 ± 2.8 | 94.2 ± 1.9 | 91.7 ± 2.0 | 23.8 ± 1.9 | 24.8 ± 2.0 | 26.7 ± 0.8 | 10.8 ± 0.5 | 10.7 ± 0.8 | 11.0 ± 0.1 |
| COc1cc(C(=O)N2CCc3sccc3C2)ccc1O [Example 12, (6,7-Dihydrothieno[3,2-c]pyridin-5(4H)-yl)(4-hydroxy-3-methoxyphenyl)methanone] | 0.069 ± 0.007 | significantly, remarkably inhibited | 99.5 ± 7.5 | 95.0 ± 12.0 | 88.5 ± 4.5 | 83.0 ± 4.0 | 80.0 ± 2.0 | 87.5 ± 3.5 | 76.0 ± 3.0 | 67.5 ± 2.5 | 77.0 ± 12.0 | 95.1 ± 1.9 | 97.2 ± 2.8 | 89.0 ± 2.3 | 24.3 ± 0.1 | 26.7 ± 1.0 | 27.2 ± 2.0 | 10.9 ± 0.1 | 11.0 ± 0.5 | 10.5 ± 0.3 |
| CCc1occc(=O)c1OC(=O)c1ccc(O)c(OC)c1 [Example 13, 2-Ethyl-4-oxo-4H-pyran-3-yl 4-hydroxy-3-methoxybenzoate] | 0.064 ± 0.006 | significantly, remarkably inhibited | 92.5 ± 5.5 | 95.0 ± 12.0 | 88.5 ± 4.5 | 90.0 ± 3.0 | 79.5 ± 0.5 | 85.5 ± 3.5 | 75.5 ± 1.5 | 75.0 ± 1.0 | 71.5 ± 6.5 | 100.1 ± 1.9 | 94.2 ± 2.0 | 98.3 ± 5.5 | 24.7 ± 1.0 | 26.6 ± 1.8 | 27.5 ± 1.7 | 11.0 ± 0.3 | 10.6 ± 0.2 | 10.8 ± 0.3 |
| COc1cc(C(=O)Oc2c(C)occc2=O)ccc1O [Example 14, 2-Methyl-4-oxo-4H-pyran-3-yl 4-hydroxy-3-methoxybenzoate] | 0.066 ± 0.006 | significantly, remarkably inhibited | 81.3 ± 2.5 | 84.0 ± 0.6 | 86.0 ± 4.6 | 82.0 ± 1.7 | 80.0 ± 1.7 | 92.0 ± 2.0 | 74.5 ± 2.5 | 75.0 ± 3.0 | 63.5 ± 5.5 | 99.6 ± 1.7 | 99.5 ± 1.6 | 87.3 ± 2.7 | 27.0 ± 0.4 | 26.7 ± 0.2 | 26.3 ± 1.7 | 10.1 ± 0.3 | 10.1 ± 0.0 | 11.1 ± 0.1 |
| COc1ccc(NC(=O)c2ccc(O)c(OC)c2)c([N+](=O)[O-])c1 [Example 15, 4-Hydroxy-3-methoxy-N-(4-methoxy-2-nitrophenyl)benzamide] | 0.070 ± 0.006 | significantly, remarkably inhibited | 95.5 ± 3.5 | 100.5 ± 4.5 | 98.0 ± 3.0 | 86.0 ± 0.0 | 84.5 ± 4.5 | 83.5 ± 3.5 | 70.5 ± 2.5 | 68.5 ± 3.5 | 67.0 ± 4.0 | 100.8 ± 2.5 | 94.9 ± 3.3 | 89.7 ± 2.3 | 26.3 ± 2.3 | 26.6 ± 1.0 | 29.3 ± 0.5 | 10.7 ± 0.0 | 10.6 ± 0.2 | 10.9 ± 0.1 |
